Tests used:
Purkinje cells = experiment: Test Example 6: increase in Purkinje cells of adult mouse after injection into E11.5 fetal ventricle; format: in vivo; conditions: test compounds = Compounds 1 to 7; 100 μM injected into E11.5 fetal ventricle, counted in adult mice; vs control; N=10
Description: A solution prepared by dissolving 100 μM of the test compound in physiological saline was injected into E11.5 mouse fetal ventricle. Brains of adult mouse individuals were fixed, and slice sections of cerebellar Purkinje cell layers were immunostained with an anti-d-Calbindin antibody, which is a marker of cell bodies and neurites of Purkinje cells. After staining, the number of Purkinje cells was counted, and the average value thereof was calculated.
As a control experiment (control), a similar experiment was performed using physiological saline containing no test compound.
The number of samples is 10 for each of Compounds 1 to 7 and control (N=10).

pancreatic β cells = experiment: Test Example 9: pancreatic β cells and insulin in transgenic zebrafish embryos; format: in vivo; conditions: vs control
Description: Transgenic zebrafish expressing pancreatic β-cell GFP
Transgenic zebrafish embryos expressing pancreatic β-cell GFP at 10 hours after fertilization were held with the dorsal side of the head up on a coffin, and a glass capillary was inserted from the dorsal side into a gap just below the midline neural tube at about 2 times the distance between the rostral end and the ear vesicles to the caudal side (pancreatic primordium). A nitrogen gas pressure (15 picosiemens) was applied for 15 to 45 milliseconds, and the test compound was injected. The concentration of the test compound was 100 nM/E3, and 0.025% (final concentration) phenol red was mixed as a tracer of the infusion solution. The injection was performed in pulses with a foot pedal and continued until phenol red was distributed in an elliptical shape with a major axis of 200 μm from the insertion point.
The test compound (100 nM) was injected on a coffin in transgenic zebrafish embryos expressing pancreatic β-cell GFP at 10 hours after fertilization. After injection, embryos were cultured in E3 at 28.5° C. for 14 hours. After chorions were removed with tweezers, the embryos were fixed with 4% paraformaldehyde/PBS at room temperature for 1 hour, and in situ hybridization was performed overnight at 65° C. in the presence of a DIG probe of insulin (ins) according to a conventional method. After washing, β cells were stained by an alkali phosphatase color reaction using an anti-DIG antibody. After staining, the embryos were washed with PBS, embedded in 75% glycerin/PBS and localized, and then microscopically photographed with incident light. The number of test individuals was unified with n=100 for each test compound (FIG. 23).
Transgenic zebrafish embryos expressing pancreatic β-cell GFP at 10 hours after fertilization were injected with the test compound (100 nM or 5 nM) on the coffin. After injection, embryos were cultured in E3 at 28.5° C. for 20 hours in the presence of 0.2 mM phenylthiourea (PTU). After chorions were removed with tweezers, the embryos were fixed with 4% paraformaldehyde/PBS at normal temperature for 1 hour, immunohistochemically reacted with an anti-insulin antibody according to a conventional method, and then reacted with an Alexa fluor 488 anti-mouse IgG secondary antibody. The reacted embryos were washed with PBS, embedded in 75% glycerin/PBS and localized, and then microscopically photographed with 488 nm excitation light (FIG. 24). The number of tested individuals was unified with n=10 for each compound. The insulin amount was quantified by measuring the average fluorescence intensity in a circle with a radius of 100 μm centered on the fluorescence point (FIG. 25).

[1] = tested on: T-cell type acute lymphocytic leukemia model; experiment: Test Example 10: verification of anticancer effect in T-cell type acute lymphocytic leukemia model; format: in vivo, zebrafish
Description: T-cell type acute lymphocytic leukemia model specifically expressing GFP in vascular endothelial cells
A liquid agent prepared by adding a compound to E3 Ringer to adjust to 100 μM was microscopically injected into the body ventral main vessel of an embryo of a T cell-type acute lymphatic leukemia model individual 24 hours after fertilization. E3 Ringer was similarly microscopically injected as a control. At the time of microinjection, embryos were held on the body side up in a 3% methylcellulose/E3 Ringer/0.02% tricaine solution on a glass slide, and then a glass capillary was inserted into an abdominal main vessel running in the head-to-tail direction at the boundary between the body wall and egg yolk. Then, a nitrogen gas pressure (15 picosiemens) was applied for 30 to 45 milliseconds, and the mixture was injected into the blood vessel. At this time, 0.025% (final concentration) phenol red was mixed as a tracer of the injection solution. The amount to be injected was adjusted by applying gas pressure in a pulsed manner until a large blood vessel of the whole body became uniform and thin red due to blood flow. […]
In addition, survival rates of drug-injected individuals and control individuals were counted. […]

retinal ganglion cells = experiment: Test Example 5: regeneration induction of mouse retinal neurons by eye drop in high intraocular pressure glaucoma model; format: in vivo; conditions: 100 μM eye drops to both eyes three times a day; 10 days to 1 month; vs control
Description: High intraocular glaucoma model mouse (transgenic lines specifically expressing green fluorescent protein (GFP) in retinal ganglion cells)
To an adult of a high intraocular pressure glaucoma model mouse, a solution prepared by dissolving 100 μM of the test compound in 1% methyl cellulose/physiological saline was administered by instillation to both eyes at […] per a time three times a day.
As a control experiment (control), an experiment of instilling 1% methyl cellulose/physiological saline containing no test compound was also performed.

CNS(=O)(=O)c1ccccc1Nc1nc(Nc2ccc(N3CCN(C)CC3)cc2OC)ncc1Cl [Compound 7, 2-[[5-Chloro-2-[2-methoxy-4-(4-methylpiperazin-1-yl)anilino]pyrimidin-4-yl]amino]-N-methylbenzenesulfonamide]
number of Purkinje cells in the cerebellar Purkinje cell layers (Purkinje cells): significantly higher than that of the control | number of β cells (pancreatic β-cell GFP fluorescence) (pancreatic β cells; 100 nM injected at pancreatic primordium 10 h after fertilization, observed up to 48 h): increased as compared with the control individual | production amount of insulin by β cells (in situ hybridization, ins probe) (pancreatic β cells; 100 nM, 14 h after injection, n=100): significantly increased as compared with the control individual | thickening and tumorigenesis of vascular endothelium ([1]; 100 μM injected into ventral main vessel at 24, 36 and 48 h after fertilization, observed at 56 h, vs control): thickening and tumorigenesis of the endothelium were observed | survival rate on Day 28 ([1]; leukemia model individuals injected with 100 μM, three tests, control 22.4%±4.56): 55.9%±6.07 | amplification of retinal ganglion cells (retinal ganglion cells): amplification of retinal ganglion cells was remarkably observed

— patent US20230134859A1, “METHOD FOR SCREENING FOR, METHOD FOR PRODUCING, AND METHOD FOR DESIGNING DRUG ACTIVE INGREDIENTS” (SKY PHARMA CO., LTD., priority 2020, published 2023)
